Experiment [1] deals with CCK-1 and CCK-2 receptors (C6 cells). The experiment is described as follows: Ca2+ imaging (Fura-2), CCK-8s response in C6 cells. It is filed as cell-based, rat. The settings on record: CCK-8s 10 nM; n = 103/five dishes; Fura-2, 34°C, BSS pH 7.4. The protocol: (§1) Rat C6 glioma cells were cultured in Dulbecco’s Modified Eagle Medium/F12 (DMEM/F12) supplemented with 10% FBS, sodium bicarbonate (1.2 g/L), and 1% penicillin/streptomycin antibiotics at 37 °C in 5% CO2. The full-length mouse leptin receptor (ObRb) in pcDNA3.1 vector was kindly provided by Dr. Christian Bjørbaek (BIDMC, Harvard Medical School, Boston, MA, USA) and transfected using Lipofectamine 2000. Subsequently, the cells were cultured in medium containing 500 μg/mL G418 for cell selection.
(§2) C6 cells plated on 35 mm plastic dishes were gently rinsed with buffered salt solution (BSS) consisting of 130 mM NaCl, 5.4 mM KCl, 2 mM CaCl2, 1 mM MgCl2, 5.5 mM D-glucose, and 10 mM HEPES/NaOH (pH 7.4), and incubated in BSS supplemented with 6 µM Fura-2 AM (Dojindo Laboratories, Kumamoto, Japan) for 30 min in a CO2 incubator. Prior to photometry, the cells were rinsed again with BSS, incubated at 37°C for 15 min, and then continuously perfused with BSS at 34°C at a flow rate of 3 mL/min. Fluorescence images were obtained using an upright microscope (Axioplan2; Carl Zeiss, Thornwood, NY, USA) with a water-immersion objective (Achroplan×20 NA0.5w; Carl Zeiss). The wavelength of the excitation UV light (340 nm or 380 nm pulse; 250 msec) was switched using a filter wheel (Lambda 10-2; Sutter Instruments, Novato, CA, USA). […] The background fluorescence was also subtracted using the software. […]

Experiment [2] concerns primary cultures of rat nodose ganglion neurons. The settings on record: CCK-8s treatment, co-stimulation with leptin; cited from earlier work. An excerpt: An important observation in C6 models, other than intracellular Ca^2+ signalling, is the reduction in leptin-induced nuclear pSTAT3 accumulation by co-stimulation with CCK-8s. The level of pSTAT3 following co-stimulation with CCK-8s and leptin has been analyzed in primary cultures of rat nodose ganglion neurons[53],[54].

Another experiment deals with megakaryoblast cells. As to conditions: co-stimulation with leptin; cited from earlier work. An excerpt: It was previously shown that ADP-induced Ca^2+ mobilization, presumably via Gq-coupled P2Y receptor, was enhanced by co-stimulation with leptin in megakaryoblast cells. Since leptin could phosphorylate the tyrosine residue of Gqα protein by JAK2 (i.e., in AG490-dependent manner) in these cells, leptin could facilitate CCK receptor signalling similarly in C6 cells. […] Thus, further downstream signalling might also involve the activation of p ...

Another experiment concerns wild-type C6 cells. The experiment is described as follows: Ca2+ imaging (Fura-2), leptin and CCK-8s signalling interaction in wild-type C6 cells. It is filed as cell-based, rat. As to conditions: leptin 100 nM. How it is done:
as §1
C6 cells plated on 35 mm plastic dishes were gently rinsed with buffered salt solution (BSS) consisting of 130 mM NaCl, 5.4 mM KCl, 2 mM CaCl2, 1 mM MgCl2, 5.5 mM D-glucose, and 10 mM HEPES/NaOH (pH 7.4), and incubated in BSS supplemented with 6 µM Fura-2 AM (Dojindo Laboratories, Kumamoto, Japan) for 30 min in a CO2 incubator. Prior to photometry, the cells were rinsed again with BSS, incubated at 37°C for 15 min, and then continuously perfused with BSS at 34°C at a flow rate of 3 mL/min. Fluorescence images were obtained using an upright microscope (Axioplan2; Carl Zeiss, Thornwood, NY, USA) with a water-immersion objective (Achroplan×20 NA0.5w; Carl Zeiss). The wavelength of the excitation UV light (340 nm or 380 nm pulse; 250 msec) was switched using a filter wheel (Lambda 10-2; Sutter Instruments, Novato, CA, USA). The UV light was generated by a full spectrum 300W Xenon bulb (Lambda LS; Sutter Instruments), conducted to the microscope through a liquid light guide. The pair of fluorescent images was processed using a band-pass filter (485–515 nm) and exposed to a multiple format cooled CCD camera (CoolSnap-fx; Photometrics, Tucson, AZ, USA) at 6-sec intervals. The filter wheel and the CCD camera were controlled using digital imaging software (MetaFluor ver. 6.2; Japan Molecular Devices, Tokyo, Japan). The background fluorescence was also subtracted using the software.
During image acquisition, leptin (PeproTech, Rocky Hill, NJ, USA), CCK-4 (Peptide Institute, Inc., Osaka, Japan), CCK-8s (Sigma-Aldrich, St. Louis, MO, USA), AG490 (Calbiochem, San Diego, CA), LY294002 (Calbiochem), LY225910 (R&D Systems, Minneapolis, MN, USA), LGM (LKT Laboratories Inc., St. Paul, MN, USA), and ATP (Sigma-Aldrich) were applied by switching the perfusate. The magnitude of Ca^2+ responses was determined by peak area analysis using Origin 5.0 software (OriginLab, Northampton, MA, USA).

For experiment [3], the system named is nucleus tractus solitarius. As to conditions: fourth ventricular injection of leptin; cited from earlier work. The source says: (§3) Also, the effect of CCK on satiety control is attenuated in Zucker fa/fa rats lacking functional leptin receptors. In addition, other evidence implicated that leptin-mediated satiety-controlling systems may strongly interact with CCK systems[18],[50]–[54]. For example, c-Fos expression in oxytocin neurons in the hypothalamic paraventricular nucleus is elevated by leptin administration, and these neurons have axons tha ...

Experiment [4] has as its system oxytocin neurons in the hypothalamic paraventricular nucleus. As to conditions: leptin administration; cited from earlier work.
From the text: as §3

Experiment [5] relates to C6-ObRb cells (mouse leptin receptor ObRb). The experiment is described as follows: Ca2+ imaging (Fura-2) in C6 cells overexpressing mouse ObRb (C6-ObRb). It is filed as cell-based, rat C6 cells. The protocol: as §1, §2
The test system of experiment [6] is cultured vagal afferent neurons. The settings on record: cited from earlier work.
Experiment [7] deals with meal frequency / meal size. The settings on record: leptin; cited from earlier work. The source says: Although CCK and leptin have been commonly described as satiety controlling peptides, their differential roles have also been highlighted. […] Among the wide variety of intracellular signalling machineries linked to ObRb, it is still uncertain which pathway(s) is/are linked to what type of satiety controls. pSTAT3-ir is used as a genera ...

Experiment [8] concerns porcine adrenal medullary chromaffin cells. The settings on record: cited from earlier work.
Another experiment deals with dissociated ARC neurons. As to conditions: cited from earlier work. An excerpt:
(§4) A product of the obese gene, leptin, is a peptide hormone secreted from white adipocyte tissue, also known as a satiety-controller[31]–[33]. […] Splice variants (ObRa–ObRe) have been identified for leptin receptors and only the full-length isoform (ObRb) contains the intracellular motifs required for the initiation of intracellular signalling. ObRb is a single-transmembrane receptor that interacts with diverse signalling molecules[ ...

Experiment [9] deals with hypothalamic astrocyte cultures. As to conditions: cited from earlier work.
From the text: as §4

The test system of experiment [10] is primary cultures of ventromedial hypothalamus (VMN and ARC neurons). As to conditions: depending on cell populations; cited from earlier work.
From the text: as §4

Experiment [11] has as its system cerebellar granule cell cultures. The settings on record: via MAPK pathways; cited from earlier work.
From the text: as §4

As for CCK-8s [reference compound], the “C6 cells displaying Ca2+ transients on re-stimulation” value in experiment [1] is listed as 32%. The “total pSTAT3” value in experiment [2] was “significant increase in pSTAT3”.
As for “leptin: peptide hormone secreted from white adipocyte tissue, product of the obese gene; PeproTech Cat#450-31”, the “ADP-induced Ca2+ mobilization” value in the experiment on megakaryoblast cells is reported as “enhanced”. The “Ca2+ transients by leptin treatment alone, wild-type C6 cells” value with wild-type C6 cells (5 min or 500 nM, 5 min, n = 185/eight dishes) was “failed to evoke Ca^2+ transients”. For the same substance, the “amplification in the magnitude of CCK-8s-induced Ca2+ mobilization” value in the experiment with wild-type C6 cells (5 min pre-treatment, CCK-8s 10 nM, n = 115/five dishes) is recorded as ~ 5 times. In addition, the CCK-induced satiety response result in experiment [3] is reported as “enhanced the CCK-induced satiety response”. The “c-Fos expression in the nucleus tractus solitarius” value in [3] is “failed to increase c-Fos expression”. In [4], the “c-Fos expression in oxytocin neurons” value is on record as “elevated”. Further, the “magnitude of Ca2+ response by co-stimulation, C6-ObRb versus wild-type” value in experiment [5] (leptin 100 nM and CCK-8s 10 nM, n = 84/four dishes, Student's t-test) is recorded as “not significantly different from that in wild-type C6 cells”. The “Ca2+ transients by leptin treatment alone, C6-ObRb” value in [5] (leptin 100 nM, 5 min or 500 nM, 5 min, n = 190/11 dishes) is recorded as “failed to evoke Ca^2+ transients”. Besides, the “cytosolic Ca2+ after leptin stimulation” value in [6] was “cytosolic Ca^2+ increase”; in [8] it was “cytosolic Ca^2+ increase”; in experiment [9], “monophasic cytosolic Ca^2+ elevation”. For the same substance, in experiment [7], the “meal size and meal frequency” value is “reduces meal size but does not alter meal frequency”. The “ghrelin-induced Ca2+ elevation” value with dissociated ARC neurons is “inhibited”. Also, in experiment [10], the “intrinsic Ca2+ oscillations” value is reported as “increased or decreased intrinsic Ca^2+ oscillations”. Moreover, the “action on N-methyl-D-aspartate-induced Ca2+ influx” value in experiment [11] is on record as “excitatory actions”.

Source of the values: publication PMC7371863, “Intracellular interplay between cholecystokinin and leptin signalling for satiety control in rats” (Scientific Reports, 2020).
